Laboratory results as given in ChEMBL document CHEMBL5108052, “Histone Deacetylase and Enhancer of Zeste Homologue 2 Dual Inhibitors Presenting a Synergistic Effect for the Treatment of Hematological Malignancies” (J Med Chem, 2022).
pIC50: −log10 of the molar value.

How the values were obtained:
[1] = biological target: Histone deacetylase 5 (Homo sapiens, UniProt Q9UQL6); test: Inhibition of recombinant C-terminal his fusion-tagged human HDAC5 (656 to 1122 residues) expressed in baculovirus expression system using trifluoroacetyl lysine as substrate incubated for 2 hrs by Multimode microplate reader analysis
[2] = biological target: T1, Histone deacetylase 7 (Homo sapiens, UniProt Q8WUI4); test: Inhibition of N-terminal GST-fusion tagged recombinant human HDAC7 (518 to 991 residues) expressed in insect cells using trifluoroacetyl lysine as substrate incubated for 2 hrs by Multimode microplate reader analysis
T1 sequence (Q8WUI4 whole entry): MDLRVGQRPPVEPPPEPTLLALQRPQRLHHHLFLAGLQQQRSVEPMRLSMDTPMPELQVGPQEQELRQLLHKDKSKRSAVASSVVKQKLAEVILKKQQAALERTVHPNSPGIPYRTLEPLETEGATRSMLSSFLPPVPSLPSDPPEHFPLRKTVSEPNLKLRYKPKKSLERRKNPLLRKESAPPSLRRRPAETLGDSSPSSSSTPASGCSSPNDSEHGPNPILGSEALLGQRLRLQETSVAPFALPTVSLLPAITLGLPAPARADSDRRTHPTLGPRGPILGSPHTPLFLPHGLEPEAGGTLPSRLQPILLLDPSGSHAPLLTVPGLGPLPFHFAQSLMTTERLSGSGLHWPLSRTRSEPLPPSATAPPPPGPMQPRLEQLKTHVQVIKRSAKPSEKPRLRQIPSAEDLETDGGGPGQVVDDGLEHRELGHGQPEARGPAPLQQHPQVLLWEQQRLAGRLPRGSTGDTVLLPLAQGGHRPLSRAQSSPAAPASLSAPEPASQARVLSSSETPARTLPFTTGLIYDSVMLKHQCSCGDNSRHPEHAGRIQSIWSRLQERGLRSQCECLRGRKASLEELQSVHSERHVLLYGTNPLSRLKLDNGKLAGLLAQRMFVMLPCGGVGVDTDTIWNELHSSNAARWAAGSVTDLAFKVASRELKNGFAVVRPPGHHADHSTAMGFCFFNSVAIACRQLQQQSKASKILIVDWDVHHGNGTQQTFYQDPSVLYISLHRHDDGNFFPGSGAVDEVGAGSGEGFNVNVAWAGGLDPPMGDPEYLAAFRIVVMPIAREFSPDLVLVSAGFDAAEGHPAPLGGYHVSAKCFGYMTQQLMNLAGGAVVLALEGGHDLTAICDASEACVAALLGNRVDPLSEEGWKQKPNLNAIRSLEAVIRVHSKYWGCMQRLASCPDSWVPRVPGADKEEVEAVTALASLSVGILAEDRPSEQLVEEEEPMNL

[3] = test system: MV4-11; test: Induction of apoptosis in human MV4-11 cells assessed as late apoptotic cells at 0.1 uM measured after 48 hrs by Annexin V/7-AAD-dual staining based flow cytometric analysis (reference value: 1.1 %); assay type: functional
[4] = biological target: T2, Histone deacetylase 8 (Homo sapiens, UniProt Q9BY41); test: Inhibition of recombinant C-terminal His-fusion tagged/N-terminal Strep2 tagged human HDAC8 (1 to 377 residues) expressed in insect cells using RHK-K(Ac)-K(Ac)-AMC as substrate incubated for 2 hrs by Multimode microplate reader analysis
T2 sequence (Q9BY41 whole entry): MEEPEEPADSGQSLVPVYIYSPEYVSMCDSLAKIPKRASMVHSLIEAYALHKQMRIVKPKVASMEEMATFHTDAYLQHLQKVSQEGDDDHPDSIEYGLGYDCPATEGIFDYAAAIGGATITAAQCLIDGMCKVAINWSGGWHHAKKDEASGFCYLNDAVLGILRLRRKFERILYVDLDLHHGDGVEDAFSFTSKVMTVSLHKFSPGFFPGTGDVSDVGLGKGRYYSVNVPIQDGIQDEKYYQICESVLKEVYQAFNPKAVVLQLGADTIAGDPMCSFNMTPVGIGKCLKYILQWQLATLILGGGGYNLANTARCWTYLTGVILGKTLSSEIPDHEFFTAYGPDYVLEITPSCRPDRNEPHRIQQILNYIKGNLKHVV

[5] = biological target: Histone deacetylase 9 (Homo sapiens, UniProt Q9UKV0); test: Inhibition of HDAC9 (unknown origin) incubated for 2 hrs by Multimode microplate reader analysis
[6] = biological target: T3, Protein deacetylase HDAC6 (Homo sapiens, UniProt Q9UBN7); test: Inhibition of full length recombinant N-terminal GST-tagged human HDAC6 (1 to 1215 residues) expressed in baculovirus infected insect cells incubated for 2 hrs by Multimode microplate reader analysis
T3 sequence (Q9UBN7 whole entry): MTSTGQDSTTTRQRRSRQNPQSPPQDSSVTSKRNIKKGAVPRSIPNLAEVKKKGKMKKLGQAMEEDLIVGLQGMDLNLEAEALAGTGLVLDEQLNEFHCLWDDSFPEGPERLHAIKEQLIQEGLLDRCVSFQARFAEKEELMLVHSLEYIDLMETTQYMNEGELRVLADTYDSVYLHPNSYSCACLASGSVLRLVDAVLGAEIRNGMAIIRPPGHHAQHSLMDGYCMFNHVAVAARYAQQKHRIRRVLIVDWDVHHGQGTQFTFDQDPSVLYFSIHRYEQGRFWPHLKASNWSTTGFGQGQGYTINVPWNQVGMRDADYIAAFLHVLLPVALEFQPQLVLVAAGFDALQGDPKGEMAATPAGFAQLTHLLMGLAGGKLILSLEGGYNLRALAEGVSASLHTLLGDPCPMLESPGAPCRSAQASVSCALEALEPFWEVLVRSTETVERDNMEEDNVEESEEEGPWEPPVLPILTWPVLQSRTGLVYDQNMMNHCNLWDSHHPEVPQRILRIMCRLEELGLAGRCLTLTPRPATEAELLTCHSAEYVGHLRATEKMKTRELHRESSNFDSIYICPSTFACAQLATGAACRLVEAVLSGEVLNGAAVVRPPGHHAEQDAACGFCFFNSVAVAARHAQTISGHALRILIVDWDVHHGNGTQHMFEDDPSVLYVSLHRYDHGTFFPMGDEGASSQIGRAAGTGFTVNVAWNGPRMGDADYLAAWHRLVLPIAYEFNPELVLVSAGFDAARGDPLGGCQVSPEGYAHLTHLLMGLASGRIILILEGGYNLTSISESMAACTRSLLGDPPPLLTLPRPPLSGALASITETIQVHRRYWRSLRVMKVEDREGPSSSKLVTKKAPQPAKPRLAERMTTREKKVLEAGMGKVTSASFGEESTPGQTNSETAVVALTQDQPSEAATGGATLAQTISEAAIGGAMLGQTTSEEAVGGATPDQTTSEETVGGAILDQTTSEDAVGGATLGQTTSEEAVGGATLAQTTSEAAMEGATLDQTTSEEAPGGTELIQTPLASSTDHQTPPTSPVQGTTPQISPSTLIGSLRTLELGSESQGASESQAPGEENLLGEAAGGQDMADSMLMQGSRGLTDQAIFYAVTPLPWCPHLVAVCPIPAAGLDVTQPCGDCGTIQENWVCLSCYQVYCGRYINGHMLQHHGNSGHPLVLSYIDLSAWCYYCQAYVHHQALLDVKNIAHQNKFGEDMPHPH

[7] = test system: MV4-11; test: Induction of apoptosis in human MV4-11 cells assessed as necrotic cells at 0.1 uM measured after 48 hrs by Annexin V/7-AAD-dual staining based flow cytometric analysis (reference value: 0.3 %); assay type: functional

Histone deacetylase 5, sequence (Q9UQL6 whole entry, the tested form may be a part): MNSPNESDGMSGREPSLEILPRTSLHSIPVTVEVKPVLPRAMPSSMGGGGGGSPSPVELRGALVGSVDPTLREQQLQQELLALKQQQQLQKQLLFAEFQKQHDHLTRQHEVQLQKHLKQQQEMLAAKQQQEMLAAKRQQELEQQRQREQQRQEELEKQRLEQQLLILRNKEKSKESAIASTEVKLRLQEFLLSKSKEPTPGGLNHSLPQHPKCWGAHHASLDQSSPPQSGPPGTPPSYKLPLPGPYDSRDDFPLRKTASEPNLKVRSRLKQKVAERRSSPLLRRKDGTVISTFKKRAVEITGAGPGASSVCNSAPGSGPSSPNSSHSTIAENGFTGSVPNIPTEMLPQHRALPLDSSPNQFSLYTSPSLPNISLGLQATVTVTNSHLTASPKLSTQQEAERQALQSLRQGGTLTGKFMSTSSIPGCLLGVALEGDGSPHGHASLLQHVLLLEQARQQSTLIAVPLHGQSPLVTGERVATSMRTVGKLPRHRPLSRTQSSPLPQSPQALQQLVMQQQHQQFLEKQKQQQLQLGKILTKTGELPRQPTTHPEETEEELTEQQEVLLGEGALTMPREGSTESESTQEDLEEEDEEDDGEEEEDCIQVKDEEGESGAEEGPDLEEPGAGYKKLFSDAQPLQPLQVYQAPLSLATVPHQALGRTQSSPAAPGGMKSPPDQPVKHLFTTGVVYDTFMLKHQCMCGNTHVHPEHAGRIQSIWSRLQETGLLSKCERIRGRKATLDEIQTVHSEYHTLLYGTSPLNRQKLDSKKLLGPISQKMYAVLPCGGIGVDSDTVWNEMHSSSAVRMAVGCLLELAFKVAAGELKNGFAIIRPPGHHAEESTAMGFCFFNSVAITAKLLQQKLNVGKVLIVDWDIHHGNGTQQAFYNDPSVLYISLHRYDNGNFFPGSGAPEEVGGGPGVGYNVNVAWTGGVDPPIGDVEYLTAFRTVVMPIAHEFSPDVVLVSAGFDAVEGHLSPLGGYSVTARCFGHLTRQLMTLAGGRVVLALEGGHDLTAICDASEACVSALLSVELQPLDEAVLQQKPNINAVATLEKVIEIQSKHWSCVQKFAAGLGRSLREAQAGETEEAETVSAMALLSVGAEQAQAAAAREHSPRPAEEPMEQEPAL
Histone deacetylase 9, sequence (Q9UKV0 whole entry, the tested form may be a part): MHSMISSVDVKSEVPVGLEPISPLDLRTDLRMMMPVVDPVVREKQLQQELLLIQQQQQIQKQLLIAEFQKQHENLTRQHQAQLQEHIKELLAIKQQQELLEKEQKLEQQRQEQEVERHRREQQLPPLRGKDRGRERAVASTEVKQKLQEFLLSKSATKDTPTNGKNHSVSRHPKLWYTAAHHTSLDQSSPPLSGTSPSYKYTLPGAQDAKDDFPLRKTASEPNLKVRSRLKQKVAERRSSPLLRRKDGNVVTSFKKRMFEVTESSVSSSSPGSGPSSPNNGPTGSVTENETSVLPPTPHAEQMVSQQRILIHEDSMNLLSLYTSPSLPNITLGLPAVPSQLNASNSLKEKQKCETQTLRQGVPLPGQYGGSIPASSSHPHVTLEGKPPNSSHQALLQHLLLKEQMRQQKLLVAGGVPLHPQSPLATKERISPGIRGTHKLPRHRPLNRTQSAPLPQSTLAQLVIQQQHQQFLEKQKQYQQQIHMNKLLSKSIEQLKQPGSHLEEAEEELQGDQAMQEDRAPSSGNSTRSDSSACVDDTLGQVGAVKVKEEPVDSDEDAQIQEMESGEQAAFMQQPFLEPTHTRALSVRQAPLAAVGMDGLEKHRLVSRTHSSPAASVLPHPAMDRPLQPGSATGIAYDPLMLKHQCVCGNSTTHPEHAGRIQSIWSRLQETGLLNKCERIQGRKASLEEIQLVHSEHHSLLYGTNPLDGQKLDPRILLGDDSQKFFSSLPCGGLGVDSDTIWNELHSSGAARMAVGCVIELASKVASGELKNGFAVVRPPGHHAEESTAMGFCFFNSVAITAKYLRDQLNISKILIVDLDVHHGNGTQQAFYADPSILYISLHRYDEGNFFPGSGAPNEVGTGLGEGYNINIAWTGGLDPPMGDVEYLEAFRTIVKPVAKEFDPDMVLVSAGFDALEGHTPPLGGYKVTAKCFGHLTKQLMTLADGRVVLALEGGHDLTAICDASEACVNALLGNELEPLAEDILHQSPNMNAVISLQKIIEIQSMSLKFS

Cc1cc(C)c(CNC(=O)c2cc(-c3ccc(N4CCN(c5ncc(C(=O)NO)cn5)CC4)nc3)cc3c2cnn3C(C)C)c(=O)[nH]1
pIC50 [1]: 5.54
pIC50 [2]: 5.09
Activity [3]: 4.4%
pIC50 [4]: 6.96
pIC50 [5]: 5.15
pIC50 [6]: 6.15
Activity [7]: 1.9%
